Data set [1] is described as follows: ORP (oxidation-reduction potential) of mixtures versus sodium hypochlorite solution of the same concentration. Type of data set: physicochemical. To be noted: for ORP: Only solution.
Data set [2] concerns E. coli group. The data set is described as follows: Bactericidal effect on green onions, E. coli group count. In kind it is cell-based. To be noted: green onion, immersion 30 minutes.
Data set [3] deals with overall viable bacteria count. The data set is described as follows: Bactericidal effect on green onions, overall viable bacteria count. In kind it is cell-based. The note with it: green onion, immersion 30 minutes.

For `OCl` [sodium hypochlorite], the ORP was 554 mV in data set [1] (200 ppm), 560 mV in data set [1] (1000 ppm) and 560 mV in data set [1] (Undiluted solution (6%)). Besides, the “ORP (oxidation-reduction potential) / oxidizing power upon dilution” value in data set [1] (diluted) is on record as “no change”. Besides, the “E. coli group count” value was determined as 5.66 log CFU in data set [2] (200 ppm, D + 3); 2.64 log CFU in data set [2] (1000 ppm, D + 2); 4.73 log CFU in data set [2] (1000 ppm, D + 3). Moreover, the “Overall viable bacteria count” value in data set [3] (200 ppm, D + 0) was 5.00 log CFU; in data set [3] (200 ppm, D + 1) it was 5.72 log CFU; in data set [3] (1000 ppm, D + 0), 3.57 log CFU; in data set [3] (1000 ppm, D + 1), 5.61 log CFU.

Source of the values: US20250033966A1, “MANUFACTURING METHOD FOR OBTAINING NOVEL CHLORINE OXIDE COMPOSITION FROM DEGRADED HYPOCHLORITE” (HONBUSANKEI CO., LTD., priority 2018, published 2025).
